The values that follow come from patent US20070078174A1 (priority 2005, published 2007).

A short description of series [1]: clinical. To be noted: human, plasma, other: sublingual and oral. The method, then:
Two groups were randomized and there was a one week washout period between administrations. The volunteers were in the fasted state when the drugs were administered. […] The oral formulation was administered with a glass of water. […] The samples were blinded from the analysts. […]

A short description of series [2]: clinical. Conditions: male, human, plasma.
Protocol: The study was a randomized open label study with a four period comparative crossover study. […] The blood samples were taken at “0” hour (pre-dosing), 10 min, 20 min, 40 min, 1.0.
The study contained twelve (12) male subjects aged 18-55 years. […] However the available pharmacokinetic data from all twelve (12) subjects was included in the statistical analysis, as required by the study protocol.
The study administered the single dosages in four different forms.
For series [3] the following is noted: cited from earlier work.

Structures can show the parent of a compound that is named as a salt.

As to `Clc1ccc2nsnc2c1NC1=NCCN1` [tizanidine, Tizanidine hydrochloride], the half-life in the series “clinical [1]” and in “clinical [2]” was 90 to 102 min throughout. Besides, the absolute bioavailability entry in series [3] (administered orally, extensive hepatic first pass metabolism) is recorded as “about 40%”. For the same compound, the bioavailability in series [3] (lowered by first-pass hepatic metabolism) was 22-40%. In addition, in series [3] (reported), the terminal half life is 2.5 h.
